Reference: patent EP1948196B1, “USE OF TETRAORGANOSILICON COMPOUNDS” (Salama, Zoser B., priority 2005, dated 2007)
Like-named read-outs stand apart in the source and are kept apart here. Numbered stars: 1 amine (or outer) side, 2 acyl side, 3 side chain; on linkers, the order of the positions; unused ones are H or OH. Bridge positions count the residues as written; N and C are the ends. Peptide text beside a SMILES is read from it. I, II: the chains in the order shown. X1 = C[Si](C)(O[*:1])O[*:2]

Assays:
Hepatitis B-Viren = test: Antiviral effect; details: in particular as vesicles holding antisense constructs
Basalzellkarzinome [1] = test: Effect on basal cell carcinomas
Sendai-Viren = test: Antiviral effect; details: in particular as vesicles holding antisense constructs
Angiosarkome = test: Effect on angiosarcomas
Hepatitis C-Viren = test: Antiviral effect; details: in particular as vesicles holding antisense constructs
Seminome = test: Effect on seminomas
Osteosarkomen = test: Antimetastatic effect in rats; type: in vivo; details: in Ratten
Adenokarzinome = test: Effect on adenocarcinomas
Entero-Viren = test: Antiviral effect; details: in particular as vesicles holding antisense constructs
Medulloblastome = test: Effect on medulloblastomas
Medulloblastom-Zellen = test: Inhibition of cell multiplication; type: cell-based
[2] = tested on: Osteosarkom bzw. Adenokarzinome; test: Effect in mice on osteosarcoma or adenocarcinoma; set-up: species or system Mäuse; details: in vivo
[3] = tested on: Zellen des Basatzellkarzinoms; test: Inhibition of cell multiplication; type: cell-based
Basalzellkarzinome [4] = test: Effect on basal cell carcinomas; remark: listed apart in the source
HIV-Vren = test: Antiviral effect; details: in particular as vesicles holding antisense constructs
Lymphome = test: Effect on lymphomas
Adenokarzinom-Gewebe = test: Effect against adenocarcinoma tissue, inhibition of metastasis

**Q.** Which results are given for `CCCCCCCCCCCCCCCCC(=O)O[Si](CCC)(CCC)OC(=O)CCCCCCCCCCCCCCCC` [Di(heptadecanoyloxy)dipropylsilan]?
**A.** Wirkung gegen Hepatitis B-Viren (Hepatitis B-Viren): zeigen eine Wirkung; Wirkung auf Basalzellkarzinome (Basalzellkarzinome [1]): zeigen eine Wirkung; Wirkung gegen Sendai-Viren (Sendai-Viren): zeigen eine Wirkung; Wirkung gegen Angiosarkome (Angiosarkome): zeigen eine Wirkung

**Q.** Which results are given for `CC/C=C\C/C=C\C/C=C\CCCCCCCC(=O)O[Si](CCC)(CCC)OC(=O)CCCCCCC/C=C\C/C=C\C/C=C\CC` [Di(linolenoylooxy)dipropylsilan]?
**A.** Wirkung gegen Hepatitis C-Viren (Hepatitis C-Viren): zeigen eine Wirkung; Wirkung auf Seminome (Seminome): zeigen eine Wirkung

**Q.** For `CCCCCCCCC(=O)O[Si](OC(=O)CCCCCCCC)(C(C)C)C(C)C` [Di(nonanoyloxy)diisopropylsilan], which “antimetastasierende Wirkung bei Osteosarkomen” value (Osteosarkomen) is on record?
**A.** zeigen eine antimetastasierende Wirkung

**Q.** With `CCCCCCCC(=O)O[Si](OC(=O)CCCCCCC)(C(C)C)C(C)C` [Di(octanoyloxy)diisopropylsilan] as the compound, how does the “Wirkung gegen Hepatitis B-Viren” value (Hepatitis B-Viren) read?
**A.** zeigen eine Wirkung

**Q.** What about the “Wirkung auf Basalzellkarzinome” value (Basalzellkarzinome [1]) of the same compound?
**A.** zeigen eine Wirkung

**Q.** And the “Wirkung gegen Sendai-Viren” value (Sendai-Viren)?
**A.** zeigen eine Wirkung

**Q.** And the “Wirkung gegen Angiosarkome” value (Angiosarkome)?
**A.** zeigen eine Wirkung

**Q.** For `CCCCCCCCCCCCCCCC(=O)O[Si](CCC)(CCC)OC(=O)CCCCCCCCCCCCCCC` [Di(hexadecanoyloxy)dipropylsilan], which “Wirkung gegen Hepatitis B-Viren” value (Hepatitis B-Viren) is on record?
**A.** zeigen eine Wirkung

**Q.** And the “Wirkung auf Basalzellkarzinome” value (Basalzellkarzinome [1])?
**A.** zeigen eine Wirkung

**Q.** And the “Wirkung gegen Sendai-Viren” value (Sendai-Viren)?
**A.** zeigen eine Wirkung

**Q.** What about the “Wirkung gegen Angiosarkome” value (Angiosarkome) of the same compound?
**A.** zeigen eine Wirkung

**Q.** How did the “Wirkung gegen Hepatitis B-Viren” value (Hepatitis B-Viren) turn out when `CCCCCCCCCCCCCCCCCC(=O)O[Si](CCC)(CCC)OC(=O)CCCCCCCCCCCCCCCCC` [Di(octadecanoyloxy)dipropylsilan] was run?
**A.** zeigen eine Wirkung

**Q.** What about the “Wirkung auf Basalzellkarzinome” value (Basalzellkarzinome [1]) of the same compound?
**A.** zeigen eine Wirkung

**Q.** And the “Wirkung gegen Sendai-Viren” value (Sendai-Viren)?
**A.** zeigen eine Wirkung

**Q.** And the “Wirkung gegen Angiosarkome” value (Angiosarkome)?
**A.** zeigen eine Wirkung

**Q.** With `CC(C)[C@H](N)C(=O)N[C@H](C(=O)N[C@H](C(=O)N[C@H](C(=O)O[Si](C)(C)OC(=O)[C@@H](NC(=O)[C@@H](NC(=O)[C@@H](NC(=O)[C@@H](N)C(C)C)C(C)C)C(C)C)C(C)C)C(C)C)C(C)C)C(C)C` [Dimethyl bis(tetravalyl)silylester] as the compound, how does the “Wirkung auf Adenokarzinome” value (Adenokarzinome) read?
**A.** zeigen eine Wirkung

**Q.** Which “Wirkung gegen Entero-Viren” value (Entero-Viren) does the source give for `C[Si](C)(OC(=O)CNC(=O)CNC(=O)CN)OC(=O)CNC(=O)CNC(=O)CN` [Dimethyl bis(triglycyl)silylester] here?
**A.** zeigen eine Wirkung

**Q.** And the “Wirkung gegen Medulloblastome” value (Medulloblastome)?
**A.** zeigen eine Wirkung

**Q.** With `CCCCCCCC/C=C\CCCCCCCC(=O)O[Si](CC)(CC)OC(=O)CCCCCCC/C=C\CCCCCCCC` [Di (oleylooxy)diethylsilan] as the compound, how does the “Wirkung gegen Hepatitis C-Viren” value (Hepatitis C-Viren) read?
**A.** zeigen eine Wirkung

**Q.** What about the “Wirkung auf Seminome” value (Seminome) of the same compound?
**A.** zeigen eine Wirkung

**Q.** For `CCCCCCCCCC(=O)O[Si](OC(=O)CCCCCCCCC)(C(C)C)C(C)C` [Di(decanoyloxy)diisopropylsilan], which “antimetastasierende Wirkung bei Osteosarkomen” value (Osteosarkomen) is on record?
**A.** zeigen eine antimetastasierende Wirkung

**Q.** With `CC(C)[C@H](N)C(=O)N[C@H](C(=O)N[C@H](C(=O)O[Si](C)(C)OC(=O)[C@@H](NC(=O)[C@@H](NC(=O)[C@@H](N)C(C)C)C(C)C)C(C)C)C(C)C)C(C)C` [Dimethyl bis(trivalyl)silylester] as the compound, how does the “Wirkung auf Adenokarzinome” value (Adenokarzinome) read?
**A.** zeigen eine Wirkung

**Q.** Which “Wirkung gegen Entero-Viren” value (Entero-Viren) does the source give for `C[Si](C)(OC(=O)CNC(=O)CNC(=O)CNC(=O)CN)OC(=O)CNC(=O)CNC(=O)CNC(=O)CN` [Dimethyl bis(tetraglycyl)silylester] here?
**A.** zeigen eine Wirkung

**Q.** What about the “Wirkung gegen Medulloblastome” value (Medulloblastome) of the same compound?
**A.** zeigen eine Wirkung

**Q.** Which results are given for `C[C@H](N)C(=O)N[C@@H](C)C(=O)N[C@@H](C)C(=O)N[C@@H](C)C(=O)N[C@@H](C)C(=O)N[C@@H](C)C(=O)N[C@@H](C)C(=O)N[C@@H](C)C(=O)O[Si](C)(C)OC(=O)[C@H](C)NC(=O)[C@H](C)NC(=O)[C@H](C)NC(=O)[C@H](C)NC(=O)[C@H](C)NC(=O)[C@H](C)NC(=O)[C@H](C)NC(=O)[C@H](C)N` [Dimethyl bis(octaalanyl)silylester] (I: H-AAAAAAAA / II: H-AAAAAAAA; linker I:C-II:C via X1)?
**A.** Vermehrung von Medulloblastom-Zellen (Medulloblastom-Zellen): inhibieren; Wirkung auf Mäuse, Osteosarkom bzw. Adenokarzinome [2]: zeigen eine Wirkung; Vermehrung von Zellen des Basatzellkarzinoms [3]: inhibieren

**Q.** Which “Wirkung gegen Hepatitis C-Viren” value (Hepatitis C-Viren) does the source give for `CCCCC/C=C\C/C=C\CCCCCCCC(=O)O[Si](CCC)(CCC)OC(=O)CCCCCCC/C=C\C/C=C\CCCCC` [Di(linoylooxy)dipropylsilan] here?
**A.** zeigen eine Wirkung

**Q.** What about the “Wirkung auf Seminome” value (Seminome) of the same compound?
**A.** zeigen eine Wirkung

**Q.** `C[C@H](N)C(=O)N[C@@H](C)C(=O)N[C@@H](C)C(=O)N[C@@H](C)C(=O)O[Si](C)(C)OC(=O)[C@H](C)NC(=O)[C@H](C)NC(=O)[C@H](C)NC(=O)[C@H](C)N` [Dimethyl bis(tetraalanyl)silylester] was tested. Which “Vermehrung von Medulloblastom-Zellen” value (Medulloblastom-Zellen) did it give?
**A.** inhibieren

**Q.** What about the “Wirkung auf Mäuse, Osteosarkom bzw. Adenokarzinome” value [2] of the same compound?
**A.** zeigen eine Wirkung

**Q.** And the “Vermehrung von Zellen des Basatzellkarzinoms” value [3]?
**A.** inhibieren

**Q.** `C[Si](C)(OC(=O)[C@H](Cc1ccccc1)NC(=O)[C@H](Cc1ccccc1)NC(=O)[C@@H](N)Cc1ccccc1)OC(=O)[C@H](Cc1ccccc1)NC(=O)[C@H](Cc1ccccc1)NC(=O)[C@@H](N)Cc1ccccc1` [Dimethyl bis(triphenylalanyl)silylester] was tested. Which “Wirkung auf Basalzellkarzinome” value (Basalzellkarzinome [4]) did it give?
**A.** zeigen eine Wirkung

**Q.** Which results are given for `CC/C=C\C/C=C\C/C=C\CCCCCCCC(=O)O[Si](OC(=O)CCCCCCC/C=C\C/C=C\C/C=C\CC)(C(C)C)C(C)C` [Di(linolenoylooxy) diisopropylsilan]?
**A.** Wirkung gegen HIV-Vren (HIV-Vren): zeigen eine Wirkung; Wirkung auf Lymphome (Lymphome): zeigen eine Wirkung

**Q.** What does the source list for `CCCCC/C=C\C/C=C\CCCCCCCC(=O)O[Si](OC(=O)CCCCCCC/C=C\C/C=C\CCCCC)(C(C)C)C(C)C` [Di(linoylooxy)diisopropylsilan]?
**A.** Wirkung gegen HIV-Vren (HIV-Vren): zeigen eine Wirkung; Wirkung auf Lymphome (Lymphome): zeigen eine Wirkung

**Q.** For `CC(C)[C@H](N)C(=O)N[C@H](C(=O)N[C@H](C(=O)N[C@H](C(=O)N[C@H](C(=O)N[C@H](C(=O)N[C@H](C(=O)N[C@H](C(=O)O[Si](C)(C)OC(=O)[C@@H](NC(=O)[C@@H](NC(=O)[C@@H](NC(=O)[C@@H](NC(=O)[C@@H](NC(=O)[C@@H](NC(=O)[C@@H](NC(=O)[C@@H](N)C(C)C)C(C)C)C(C)C)C(C)C)C(C)C)C(C)C)C(C)C)C(C)C)C(C)C)C(C)C)C(C)C)C(C)C)C(C)C)C(C)C)C(C)C` [Dimethyl bis(octavalyl)silylester] (I: H-VVVVVVVV / II: H-VVVVVVVV; linker I:C-II:C via X1), which “Wirkung auf Adenokarzinome” value (Adenokarzinome) is on record?
**A.** zeigen eine Wirkung

**Q.** How did the “Wirkung gegen Entero-Viren” value (Entero-Viren) turn out when `C[Si](C)(OC(=O)CNC(=O)CNC(=O)CNC(=O)CNC(=O)CN)OC(=O)CNC(=O)CNC(=O)CNC(=O)CNC(=O)CN` [Dimethyl bis(pentaglycyl)silylester] was run?
**A.** zeigen eine Wirkung

**Q.** And the “Wirkung gegen Medulloblastome” value (Medulloblastome)?
**A.** zeigen eine Wirkung

**Q.** For `C[Si](C)(OC(=O)[C@H](Cc1ccccc1)NC(=O)[C@H](Cc1ccccc1)NC(=O)[C@H](Cc1ccccc1)NC(=O)[C@@H](N)Cc1ccccc1)OC(=O)[C@H](Cc1ccccc1)NC(=O)[C@H](Cc1ccccc1)NC(=O)[C@H](Cc1ccccc1)NC(=O)[C@@H](N)Cc1ccccc1` [Dimethyl bis(tetraphenylalanyl)slylester], which “Wirkung auf Basalzellkarzinome” value (Basalzellkarzinome [4]) is on record?
**A.** zeigen eine Wirkung

**Q.** With `CC(C)[C@H](N)C(=O)N[C@H](C(=O)N[C@H](C(=O)N[C@H](C(=O)N[C@H](C(=O)O[Si](C)(C)OC(=O)[C@@H](NC(=O)[C@@H](NC(=O)[C@@H](NC(=O)[C@@H](NC(=O)[C@@H](N)C(C)C)C(C)C)C(C)C)C(C)C)C(C)C)C(C)C)C(C)C)C(C)C)C(C)C` [Dimethyl bis(pentavalyl)silylester] as the compound, how does the “Wirkung auf Adenokarzinome” value (Adenokarzinome) read?
**A.** zeigen eine Wirkung

**Q.** With `CC/C=C\C/C=C\C/C=C\CCCCCCCC(=O)O[Si](CC)(CC)OC(=O)CCCCCCC/C=C\C/C=C\C/C=C\CC` [Di(linolenoylooxy)diethylsilan] as the compound, how does the “Wirkung gegen Hepatitis C-Viren” value (Hepatitis C-Viren) read?
**A.** zeigen eine Wirkung

**Q.** What about the “Wirkung auf Seminome” value (Seminome) of the same compound?
**A.** zeigen eine Wirkung

**Q.** Which results are given for `C[C@H](N)C(=O)N[C@@H](C)C(=O)N[C@@H](C)C(=O)N[C@@H](C)C(=O)N[C@@H](C)C(=O)O[Si](C)(C)OC(=O)[C@H](C)NC(=O)[C@H](C)NC(=O)[C@H](C)NC(=O)[C@H](C)NC(=O)[C@H](C)N` [Dimethyl bis(pentaalanyl)silylester]?
**A.** Vermehrung von Medulloblastom-Zellen (Medulloblastom-Zellen): inhibieren; Wirkung auf Mäuse, Osteosarkom bzw. Adenokarzinome [2]: zeigen eine Wirkung; Vermehrung von Zellen des Basatzellkarzinoms [3]: inhibieren

**Q.** For `C[C@H](N)C(=O)N[C@@H](C)C(=O)N[C@@H](C)C(=O)O[Si](C)(C)OC(=O)[C@H](C)NC(=O)[C@H](C)NC(=O)[C@H](C)N` [Dimethyl bis(trialanyl)sillylester], which “Vermehrung von Medulloblastom-Zellen” value (Medulloblastom-Zellen) is on record?
**A.** inhibieren

**Q.** And the “Wirkung auf Mäuse, Osteosarkom bzw. Adenokarzinome” value [2]?
**A.** zeigen eine Wirkung

**Q.** And the “Vermehrung von Zellen des Basatzellkarzinoms” value [3]?
**A.** inhibieren

**Q.** How did the “Wirkung gegen Adenokarzinom-Gewebe, insbesondere inhibierende Wirkung auf die Metastasierung” value (Adenokarzinom-Gewebe) turn out when `CCCCCCCCCCCCCCCC(=O)O[Si](OC(=O)CCCCCCCCCCCCCCC)(C(C)C)C(C)C` [Di(hexadecanoyloxy)diisopropylsilan] was run?
**A.** haben eine Wirkung

**Q.** With `C[Si](C)(OC(=O)CNC(=O)CNC(=O)CNC(=O)CNC(=O)CNC(=O)CNC(=O)CNC(=O)CN)OC(=O)CNC(=O)CNC(=O)CNC(=O)CNC(=O)CNC(=O)CNC(=O)CNC(=O)CN` [Dimethyl bis(octaglycyl)silylester] (I: H-GGGGGGGG / II: H-GGGGGGGG; linker I:C-II:C via X1) as the compound, how does the “Wirkung gegen Entero-Viren” value (Entero-Viren) read?
**A.** zeigen eine Wirkung

**Q.** And the “Wirkung gegen Medulloblastome” value (Medulloblastome)?
**A.** zeigen eine Wirkung

**Q.** For `CCCCCCCCCCC(=O)O[Si](OC(=O)CCCCCCCCCC)(C(C)C)C(C)C` [Di(undecanoyloxy)diisopropysilan], which “antimetastasierende Wirkung bei Osteosarkomen” value (Osteosarkomen) is on record?
**A.** zeigen eine antimetastasierende Wirkung
